Numbers after ± are expanded uncertainties.
Experiments:
[1] = Liquid; for mass density: 101.33 kPa
[2] = refractive index (Na D-line) (dimensionless); settings: 101.33 kPa, Liquid, Standard Abbe refractometry

| SMILES | mass density ([1]; 298.15 K) [kg/m3] | refractive index ([2]; 298.15 K) | further results |
| --- | --- | --- | --- |
| C1CCOC1 [tetrahydrofuran] | – | – | mass density ([1]; 293.15 K): 889.2 ± 2.7 kg/m3; vapor or sublimation pressure ([1]; 337.15 K): 94.6 ± 9.5 kPa; vapor or sublimation pressure ([1]; 337.55 K): 95.8 ± 9.6 kPa; refractive index ([2]; 293.15 K): 1.4072 ± 0.0012 |
| ClC(Cl)C(Cl)Cl [1,1,2,2-tetrachloroethane] | 1586.7 ± 4.9 | 1.4914 ± 0.0012 | vapor or sublimation pressure ([1]; 417.35 K): 95.8 ± 9.7 kPa; vapor or sublimation pressure ([1]; 417.45 K): 95.8 ± 9.7 kPa |
| CC(Cl)(Cl)Cl [1,1,1-trichloroethane] | 1329.9 ± 4.1 | 1.4359 ± 0.0012 | vapor or sublimation pressure ([1]; 345.65 K): 95.8 ± 9.6 kPa |
| ClC(Cl)=C(Cl)Cl [tetrachloroethene] | 1614.3 ± 5 | 1.5032 ± 0.0012 | vapor or sublimation pressure ([1]; 392.25 K): 95.8 ± 9.6 kPa |
| ClC=C(Cl)Cl [trichloroethene] | – | 1.475 ± 0.001 | mass density ([1]; 303.15 K): 1451.4 ± 4.5 kg/m3; vapor or sublimation pressure ([1]; 357.95 K): 95.8 ± 9.6 kPa |
| CCC(C)=O [butanone] | 799.7 ± 2.4 | 1.3769 ± 0.0012 | vapor or sublimation pressure ([1]; 350.75 K): 94.6 ± 19 kPa |

Continued, in another order:

| mass density ([1]; 298.15 K) [kg/m3] | refractive index ([2]; 298.15 K) | SMILES | further results |
| --- | --- | --- | --- |
| 815 ± 2.5 | 1.4084 ± 0.0008 | CCC(C)CO (centres undefined) [2-methyl-1-butanol] | vapor or sublimation pressure ([1]; 400.35 K): 95.8 ± 9.7 kPa |
| 781.2 ± 2.3 | 1.385 ± 0.001 | CC(C)(C)O [2-methylpropan-2-ol] | vapor or sublimation pressure ([1]; 354.15 K): 95.8 ± 9.6 kPa |
| 805.8 ± 2.4 | 1.3974 ± 0.0012 | CCCCO [butan-1-ol] | vapor or sublimation pressure ([1]; 389.45 K): 95.8 ± 9.6 kPa |
| 798 ± 2 | 1.3939 ± 0.0012 | CC(C)CO [2-methyl-1-propanol] | vapor or sublimation pressure ([1]; 379.65 K): 95.8 ± 19 kPa |
| 802.4 ± 2.4 | 1.3953 ± 0.0012 | CCC(C)O (centres undefined) [butan-2-ol] | vapor or sublimation pressure ([1]; 371.35 K): 95.8 ± 9.6 kPa |
| 679.5 ± 2 | 1.3851 ± 0.0012 | CCCCCCC [heptane] | vapor or sublimation pressure ([1]; 369.35 K): 94.6 ± 9.5 kPa |
| 773.9 ± 2.3 | 1.4235 ± 0.0012 | C1CCCCC1 [cyclohexane] | vapor or sublimation pressure ([1]; 351.75 K): 94.6 ± 9.5 kPa |
| 1246.4 ± 3.8 | 1.4421 ± 0.0012 | ClCCCl [1,2-dichloroethane] | vapor or sublimation pressure ([1]; 355.25 K): 95.8 ± 9.6 kPa |

From the NIST ThermoML archive (doi:10.1021/je030141r)
